Patent US20160153991A1, “Synbodies for Detection of Human Norovirus” (priority 2013, published 2016)

Legend:
Format in all cases: binding, Norovirus
[1] = target: nVLP GII.4; experiment: Surface plasmon resonance (SPR) screening of optimized peptides against GII.4; details: unpurified peptides against nVLP GII.4; for kd-1: SPR dissociation rate; for % Stability / Avg Binding (Spot 1/2): SPR
Method: These 96 peptides were synthesized and tested unpurified against GII.4 via surface plasmon resonance (SPR), a sample of which is shown in FIG. 3. Peptides candidates were analyzed and selected for improved binding and slower dissociation rate. Finally, a list of 10 peptide candidates with improved binding and slower dissociation rates were chosen to construct bivalent peptide affinity reagents (synbodies).

[2] = test system: GII.4 Sydney VLP; details: GII.4 Sydney VLP (VP1 identity 95%)
[3] = test system: GII.4 Minerva VLP

| Substance | kd-1 [1] | % Stability [1] | Avg Binding (Spot 1/2) [1] | Enrichment Factor from 1 ng/μL solution [2] | Enrichment Factor from 1 ng/μL solution ([3]; GII.4 Minerva VLP (VP1 identity 100%), 1 ng/μL solution) | enrichment of VLP (in words) ([3]; either GII.4 Minerva or both GII.4 Minerva and GII.4 Sydney) |
| --- | --- | --- | --- | --- | --- | --- |
| SWARSNNKRSKAFNLGWGSC [Mut Peptide-78, optimized peptide] | 0.00431 s | 46% | 168.8 | – | – | – |
| DWARKNNKRKMNFNLGWGSC [Mut Peptide-60, optimized peptide] | 0.00487 s | 44% | 134.3 | – | – | – |
| RWVRVKLRSHTELNRYIGSC [Mut Peptide-93, optimized peptide] | 0.00332 s | 60% | 274.2 | – | – | – |
| Syn 6-6: synbody 6-6 from Table 2; scaffold not stated (Table 2 lists both nVLP6-6-1571 and nVLP6-6MAP2) (RWHRVDLRSHTELPRYIGSC) | – | – | – | n.e. | 16 | enrichment |
| VWARKNNKRKKDFNAGWGSC [Mut Peptide-53, optimized peptide] | 0.00408 s | 51% | 188.8 | – | – | – |
| RWHRVDLRSHTELPRYIGSC [nVLP-6WT] | 0.00513 s | 37% | 175.7 | – | – | – |
| LLYNKTFPHGRWSPSYPGSC [nVLP-1WT] | 0.00785 s | 25% | 71.5 | – | – | – |
| AWARSNNSRSKAFNLGWGSC [Mut Peptide-81, optimized peptide] | 0.00455 s | 45% | 127.9 | – | – | – |
| RWVRVKLRSHTKLRYIGSC [Mut Peptide-94, optimized peptide] | 0.00294 s | 63% | 358.2 | – | – | – |
| RWHRVKLRSHTELNRYIGSC [Mut Peptide-92, optimized peptide] | 0.00355 s | 57% | 229.5 | – | – | – |
| DWARSNTSRSMDFNLGWGSC [nVLP-2WT] | 0.0233 s | – | 2.5 | – | – | – |
